Legend:
[1] = test system: L. monocytogenes HPB 2812 serotype ½a; assay: Inhibitory activity of purified pediocin on growth in broth; type: cell-based, Listeria monocytogenes; details: for Viable counts: from 9.14
Description: Different amounts of purified bacteriocin (0 to 800 AU/ml) were added to cultures of L. monocytogenes HPB 2812 serotype ½a in early exponential phase (grown for 6 h) and incubated at 37° C. Bacterial growth was monitored by measuring the bacterial population in a 1 ml sample taken every 2 h of incubation. These samples were serially diluted ten-fold in peptone water (0.1% w/v), pour-plated in BHI agar and then incubated at 37° C. for 24 h. Colonies were counted using Darkfield Quebec Colony Counter (American Optical, Scientific instrument division, Keene, Ohio, USA).

[2] = test system: Pediococcus acidilactici MM33; assay: Antibiotic MIC plates (resistance profile); type: cell-based; details: Pediococcus acidilactici, MM33
Source text: (§1) The protocol was adapted from Delgado et al. (2005). Minimum Inhibitory Concentration (MIC) Plate (# GPN3F) and Anaerobe MIC Plate (# AN02B) were used to determine the antibiotic sensitivity and resistance profile of MM19 and MM33 according to the instructions of the manufacturer (Trek Diagnostic Systems; Nova Century, Burlington, ON, Canada).
(§2) Lactococcus lactis subsp. lactis MM19, Pediococcus acidilactici MM33 and Lactobacillus rhamnosus GG (ATCC 53103) from frozen glycerol stock were first inoculated in Lactobacilli MRS and incubated at 37° C. for 18 h. 100 μl of this culture were further incubated under the same conditions. This second culture was then inoculated on a MRS agar plate and incubated at 37° C. for 48 h under anaerobic conditions using GasPak Plus system (BD BBL, Sparks, Md., USA).

[3] = test system: Lactobacillus rhamnosus GG (ATCC 53103); assay: Antibiotic MIC plates (resistance profile); type: cell-based; details: Lacticaseibacillus rhamnosus, ATCC53103
Source text: as §1, §2

[4] = test system: Lactococcus lactis subsp. lactis MM19; assay: Antibiotic MIC plates (resistance profile); type: cell-based; details: Lactococcus lactis
Source text: as §1, §2

[5] = test system: vancomycin-resistant Enterococcus faecium (VRE) clinical isolate; assay: Agar well-diffusion assay against VRE clinical isolate; type: cell-based; details: all concentrations evaluated between 0 to 800 μg/ml; data not shown
Description: A clinical isolate of vancomycin-resistant Enterococcus faecium (VRE) was provided by the Centre Hospitalier de l'Université de Montréal microbiology laboratory (CHUM; Montreal, QC, Canada). […] The E. faecium strain was maintained in brain-heart infusion (BHI; Difco) for E. faecium containing 10% glycerol (w/v).
An agar well-diffusion assay was performed to verify the antimicrobial capacity of the neutralized cell-free supernatant (CFS) against a VRE clinical isolate. CFS was obtained as described before. A volume of 30 ml of cooled (45° C.) sterile BHI agar, containing 0.75% agar, was inoculated with 10^7 colony-forming units (CFU)/ml of VRE, poured into a […] standard Petri dishes and allowed to solidify for 30 minutes at room temperature. Wells of 6 mm in diameter were cut-out and […] of antimicrobial agent were placed into each well. All plates were then placed at 4° C. for 30 minutes, incubated at 37° C. for 24 h and examined for inhibition zones. Inhibition was scored positive if the width of the clearing zone around the well was 0.5 mm. Antibiotics were also evaluated with this method to ascertain the resistance of the VRE strain. Vancomycin and clindamycin (Sigma-Aldrich, Oakville, ON, Canada) were used in concentrations ranging from 0 to 800 μg/ml. […]

Row | Compound | Decrease in viable CFU ml^−1 ([1]; at least 200 AU ml^−1 added into the culture medium) | Viable counts ([1]; two hours after addition of 100 AU ml^−1) | Viable counts ([1]; two hours after addition of 200 AU ml^−1) | Viable counts ([1]; two hours after addition of 400 AU ml^−1) | Viable counts ([1]; two hours after addition of 800 AU ml^−1) | MIC [2] | MIC [3] | MIC [4] | Sensitivity of the VRE clinical isolate (in words) [5]
1 | pediocin (KYYGNGVTCGKHSCSVDWGKATTCIINNGAMAWATGGHQGNHKC; Pediococcus acidilactici MM33) | more than 99.9% | 8.7 log CFU ml^−1 | 6.0 log CFU ml^−1 | 4.36 log CFU ml^−1 | 2.81 log CFU ml^−1 | – | – | – | –
2 | CN[C@H](CC(C)C)C(=O)N[C@H]1C(=O)N[C@@H](CC(N)=O)C(=O)N[C@H]2C(=O)N[C@H]3C(=O)N[C@H](C(=O)N[C@H](C(=O)O)c4cc(O)cc(O)c4-c4cc3ccc4O)[C@H](O)c3ccc(c(Cl)c3)Oc3cc2cc(c3O[C@@H]2O[C@H](CO)[C@@H](O)[C@H](O)[C@H]2O[C@H]2C[C@](C)(N)[C@H](O)[C@H](C)O2)Oc2ccc(cc2Cl)[C@H]1O [VAN, Vancomycin] | – | – | – | – | – | > 128 µg/mL | > 128 µg/mL | < 1 µg/mL | resistant

Reference: patent US20110236359A1 (priority 2007, published 2011)
